# “Also recorded” adds a separate entry of the source.
# Tests used:
# B. vulgatus [1] = assay: Prestwick library screen for microbiome-protective antibiotic antagonists (growth AUC z-scores); assay type: cell-based, Bacteroides vulgatus; conditions: z-score of normalized growth AUC, two replicates
# B. vulgatus [2] = assay: Validation of microbiome-protective antagonists (concentration-dependent growth rescue); assay type: cell-based, Bacteroides vulgatus; conditions: antagonist gradient, normalized AUC >0.25 = growth rescue
# Procedure: Validation of microbiome-protective antagonists: In a first step, the inventors kept the erythromycin/doxycycline concentration constant (0.625 μM for erythromycin, 0.078 μM (B. vulgates)/0.039 μM (B. uniformis) for doxycycline) and tested concentration gradients of the potential antagonists with ranges depending on the antagonist's solubility. Compounds were purchased from independent vendors and dissolved at 100× starting concentration in DMSO. Eight 2-fold serial dilutions were prepared in 96-well plates with each row containing a different antagonist, sufficient control DMSO wells and wells with just the respective antibiotic (‘antibiotic-only’ control). These master plates were diluted in MGAM medium (50 μl) to 2×assay concentration and 25 μl freshly prepared antibiotic solution (4× test concentration) was added. Plates were pre-reduced overnight in an anaerobic chamber and inoculated with 25 μl of overnight cultures (prepared as described under “Growth conditions”) to reach a starting OD578 of 0.01 and 1% DMSO concentration. Growth was monitored hourly for 24 h after 30 sec of linear shaking. Experiments were performed in biological triplicates. For analysis, growth curves were converted into normalized AUCs (see above). The inventors accounted for residual growth in the presence of the antibiotic by subtracting the median normalized AUCs of the ‘antibiotic-only’ control per plate.
# B. vulgatus [3] = assay: 8x8 checkerboard assay for anaerobic commensals (antibiotic vs antagonist); assay type: cell-based, Bacteroides vulgatus; conditions: for rescue of B. vulgatus growth from erythromycin: combination with erythromycin
# Text: (§1) Checkerboard assays for anaerobic commensals: Validated antagonists were further investigated in 8×8 checkerboard assays, where both antibiotics and antagonists were titrated against each other. Such assays were first performed for the commensals that were originally screened (i. e. B. vulgatus and B. uniformis—4 replicates) and later expanded towards 6 further gut microbes (B. caccae, B. fragilis NT, B. ovatus, B. thetaiotaomicron, P. copri, P. distasonis—2 replicates). For vertical gradients, 2-fold serial dilutions of the antagonists were prepared first in 100× in DMSO and diluted in MGAM as described above (section ‘Validation of microbiome-protective antagonists’). Horizontal antibiotic dilution series were freshly prepared in MGAM at 4× final concentration in equidistant concentration steps. Both, vertical and horizontal dilution series were combined (50 μl of the antagonist gradients (2×) and 25 μl of the antibiotic gradients (4×)) in 96 well plates. Plates were pre-reduced under anaerobic conditions overnight, inoculated with 25 μl of diluted overnight culture (at 4× starting OD) and sealed with breathable membrane (Breathe-Easy®). Bacterial growth was monitored once per hour for 24 hours after 30 sec linear shaking (Eon+Biostack 4, Biotek) under anaerobic conditions. Growth curves were converted into normalized AUCs as described using in-plate controls to define unperturbed growth.
# [4] = tested on: abundant gut commensal species; assay: Checkerboard assays on further abundant gut commensals; assay type: cell-based; conditions: for tested abundant gut commensal species whose growth is rescued: antidote 5-40 μm, clinically relevant erythromycin concentrations; for counteracting erythromycin on other abundant gut commensals: checkerboard with erythromycin
# Text: as §1
# Staphylococcus aureus = assay: Checkerboard assays for pathogens under aerobic conditions; assay type: cell-based; conditions: for effect on the potency of erythromycin: Staphylococcus aureus, aerobic
# Procedure: (§2) Checkerboard assays for pathogens under aerobic conditions: For three pathogens (S. aureus Newman ATCC 13420, S. aureus subsp. aureus Rosenbach 1884 DSM20231 and E. faecium ATCC19434) 8×8 checkerboard assays were performed in transparent 384 well plates (Greiner BioOne GmbH), with each well containing 30 μl (50 μl for S. pneumoniae) in total. S. aureus strains were grown in tryptic soy broth, E. faecium in BHI medium. Antagonistic drug concentrations were 2-fold distant. Cell were inoculated at initial OD595 nm 0.01 from an overnight culture. Plates were sealed with breathable membranes (Breathe-Easy), incubated at 37° C. (Cytomat 2, Thermo Scientific) with continuous shaking and OD595 nm was measured every 30 minutes for 16 hours in a Filtermax F5 multimode plate reader (Molecular Devices). Growth was evaluated at the transition to stationary phase (9 hours for S. aureus, 12 hours for E. faecium). All experiments were done at least in 2 biological replicates and 2 technical replicates. For S. pneumoniae […], the inventors only tested concentration gradients of the potential antagonists in constant concentration of the antibiotics in BHI medium.
# Streptococcus pneumoniae = assay: Antagonist concentration gradients at constant antibiotic concentration, aerobic; assay type: cell-based
# Procedure: as §2
# [5] = tested on: species of the order Bacteroidales; assay: Antidote vs azithromycin across seven gut Bacteroidales (Example 4); assay type: cell-based; conditions: combination with azithromycin
# Procedure: The antidotes dicumarol (first column), benzbromarone (second column) and tolfenamic acid (third column) were tested for their efficacy in antagonizing the macrolide antibiotic azithromycin across seven prevalent and abundant gut Bacteroidales (B. vulgatus, B. fragilis NT, B. thetaiotaomicron, P. copri, B. caccae, B. ovatus, P. distasonis). […] All drug concentrations are in μM.
# In particular, they aimed at testing, whether these antidotes can also protect from other macrolides such as azithromycin, a clinically more relevant antibiotic.
# [6] = tested on: synthetic gut commensal community of seven human gut commensals; assay: Synthetic gut commensal community growth with macrolide and antidote (Example 5); assay type: cell-based; conditions: erythromycin and azithromycin
# Text: Heat maps depict area under the growth curve (AUC) of a synthetic community consisting of seven human gut commensals. Shown is the median AUC of three individual replicates. All drug concentrations are in μM.
# So far, antidote effects have only been analyzed in single or pure cultures. However, the human gut microbiome is a complex community of many different bacterial taxa that is usually not adequately mimicked in monocultures.
# E. faecalis [7] = assay: Antidote with macrolide on enterococci (Example 6); assay type: cell-based, Enterococcus faecalis
# Text: Heat maps show median area under the growth curve (AUC) of three biologically independent replicates. […] All drug concentrations are in μM.
# Here, the inventors expanded testing towards additional antidotes, and included the intestinal human pathogen Enterococcus faecalis.
# E. faecium [8] = assay: Antidote with macrolide on enterococci (Example 6); assay type: cell-based
# [9] = tested on: seven-member synthetic community including the pathogen E. faecalis; assay: E. faecalis-containing synthetic community, community growth AUC (Example 7); assay type: cell-based
# Text: (§3) Heat maps show median area under the growth curve (AUC) of the seven-member synthetic community including the pathogen E. faecalis. The numbers within the heat map represent the total number of all E. faecalis viable cells for each erythromycin-antidote combination as determined by enumerating of E. faecalis colony forming units after plating on selective medium. All drug concentrations are in μM. n. d.=not detectable.
# (§4) The inventors exposed synthetic communities that contained the intestinal gut pathogen E. faecalis to erythromycin, and evaluated rescue of gut commensals and simultaneous killing of the pathogen in the presence of antidotes.
# E. faecalis [10] = assay: E. faecalis-containing synthetic community, E. faecalis CFU on selective medium (Example 7); assay type: cell-based, Enterococcus faecalis
# Text: as §3, §4
# B. vulgatus [11] = assay: Growth curves and time-lapse microscopy under erythromycin; assay type: cell-based, Bacteroides vulgatus; conditions: 15 μg/ml erythromycin (5-fold MIC), time-lapse microscopy
# Procedure: (§5) Microscopy: For live/dead imaging, stained cells were washed twice in 0.85% NaCl before being spotted on 0.85% NaCl+1% agarose pads between a glass slide and a coverslip. For time-lapse imaging, cells were precultured as described in the growth conditions section. […] Slides were sealed with valap and taken outside of the chamber for imaging. The imaging was performed using a Nikon Eclipse Ti inverted microscope, equipped with a Nikon DS-Qi2 camera, a Nikon Plan Apo Lambda 60× oil Ph3 DM phase contrast objective and a Nikon HC mCherry filter set (Ex 562/40; DM 593; BA 641/75) to detect propidium iodide fluorescence. Images were acquired with the NIS-Elements AR4.50.00 software and processed with Fiji v.2.0.0-rc-68/1.52 h.
# (§6) Growth curves: Cells were precultured as described in the growth conditions section. Then, cells were diluted to an OD578=0.01 in a 96-well plate sealed with a breathable membrane (Breathe-Easy®) and grown for 2 h. Next, erythromycin was added to the culture to a final concentration of 15 μg/ml (5-fold MIC) and growth curves were acquired for 20 h using a microplate spectrophotometer (EON, Biotek) by measuring the OD578 every hour after 30 sec of linear shaking.
# B. uniformis = assay: as above; assay type: cell-based, Bacteroides uniformis; conditions: 15 μg/ml erythromycin (5-fold MIC), time-lapse microscopy
# Procedure: as §5, §6
# Staphylococcus = conditions: cited from earlier work
# S. pneumoniae = conditions: cited from earlier work
# [12] = tested on: Streptococcus groups A, B, C & G; conditions: cited from earlier work
# E. faecium [13] = assay: Checkerboard assays for pathogens under aerobic conditions; assay type: cell-based
# Procedure: as §2
# [14] = Erythromycin 0.625 μM + 20 μM drug
# [15] = erythromycin 1.15 μM + 40 μM dicumarol or 20 μM benzbromarone
Compound,Mean z-score (B. vulgatus [1]; [14]),Validation (B. vulgatus [2]; Erythromycin 0.625 μM constant),rescue of B. vulgatus growth from erythromycin (B. vulgatus [3]),tested abundant gut commensal species whose growth is rescued [4],counteracting erythromycin on other abundant gut commensals [4],effect on the potency of erythromycin (Staphylococcus aureus),effect on the potency of erythromycin (Streptococcus pneumoniae),protection of Bacteroidales species from azithromycin [5],protection (growth rescue) of synthetic gut commensal community from macrolide antibiotics [6],rescue from erythromycin or azithromycin treatment (E. faecalis [7]),rescue from erythromycin or azithromycin treatment (E. faecium [8]),other results
"O=c1oc2ccccc2c(O)c1Cc1c(O)c2ccccc2oc1=O [Dicumarol, 3,3′-Methylene-bis(4-hydroxycoumarin)]",7.313,TRUE,rescued; also recorded: can rescue the growth,5/7,able to counteract erythromycin on several species,did not affect the potency,did not affect the potency,can be Protected,can be Protected,Neither dicumarol nor benzbromarone or tolfenamic acid could rescue,Neither dicumarol nor benzbromarone or tolfenamic acid could rescue,"community growth (AUC) [9, 15]: the community is rescued; rescue of the community despite erythromycin treatment ([9]; erythromycin + antidote): rescue of the community; E. faecalis counts (E. faecalis [10]; [15]): drop/are still found at below the detection limit; E. faecalis cells in community under erythromycin + antidote (E. faecalis [10]; erythromycin + antidote): efficiently inhibited"
"CC[C@H]1OC(=O)[C@H](C)[C@@H](O[C@H]2C[C@@](C)(OC)[C@@H](O)[C@H](C)O2)[C@H](C)[C@@H](O[C@@H]2O[C@H](C)C[C@H](N(C)C)[C@H]2O)[C@](C)(O)C[C@@H](C)C(=O)[C@H](C)[C@@H](O)[C@]1(C)O [Erythromycin, erythromycin]",–,–,–,–,–,–,–,–,–,–,–,"cell morphology / lysis (B. vulgatus [11]): cell shape defects, including blebbing, cytoplasmic shrinkage, and ultimately cell lysis; cell morphology / lysis (B. uniformis): cell shape defects, including blebbing, cytoplasmic shrinkage, and ultimately cell lysis; community growth (AUC) ([9]; erythromycin 1.15 μM alone): partially inhibited; E. faecalis cells in the community (E. faecalis [10]; erythromycin 1.15 μM alone): ~9×10^5 cells; MIC breakpoint (Staphylococcus): 1 µg/mL; MIC breakpoint (S. pneumoniae): 0.25 µg/mL; MIC breakpoint [12]: 0.25 µg/mL"
Cc1c(Cl)cccc1Nc1ccccc1C(=O)O [Tolfenamic acid],7.381,TRUE,able to protect; also recorded: can rescue the growth,5/7,able to counteract erythromycin on several species,did not affect the potency,did not affect the potency,can be Protected,can be Protected,Neither dicumarol nor benzbromarone or tolfenamic acid could rescue,Neither dicumarol nor benzbromarone or tolfenamic acid could rescue,"Mean z-score (B. vulgatus [1]; Doxycycline 0.08 μM + 20 μM drug): 4.000; Validation (B. vulgatus [2]; Doxycycline 0.078 μM constant): TRUE; rescue of B. vulgatus growth from doxycycline (B. vulgatus [3]; combination with doxycycline): able to protect; drug interaction with erythromycin in checkerboard (E. faecium [13]): neutral interactions; drug interaction with erythromycin in checkerboard (Staphylococcus aureus; S. aureus, aerobic conditions): neutral interactions; interaction with antibacterial effects of erythromycin/azithromycin (E. faecalis [7]): synergized; interaction with antibacterial effects of erythromycin/azithromycin (E. faecium [8]): synergized"

# Source: patent US20220387466A1, “COMPOUNDS AND PHARMACEUTICAL COMPOSITIONS FOR PREVENTION AND/OR TREATMENT OF DYSBIOSIS AND ANTIBACTERIAL ANTIDOTES FOR MICROBIOME-PROTECTION” (priority 2019, published 2022)
